Molecules are shown by their SMILES. Calls of active or inactive are those of the source. The calls are words filed in the database; no cut-off is given here.

Test [1] concerns HeLa. Put plainly: Cytotoxicity against human HeLa cells incubated for 72 hrs by MTT assay. Format: functional, cell-based. (Tetrazolium dyes change colour on reduction, which living cells bring about.)
Test [2] has as its system HeLa. Put plainly: Effect on lipid peroxidation in human HeLa cells incubated at 200 nM for 4 hrs by C11-BODIPY581/591 staining based flow cytometric analysis. Format: functional, cell-based.
Test [3] has as its system HeLa. Put plainly: Cytotoxicity against human HeLa cells assessed as increase in cell viability at 200 nM for 4 hrs relative to control. Format: functional.

By IC50 is commonly meant the point on the concentration scale where inhibition reaches its midpoint. Read a high IC50 as lower potency. `CCC/C=C/C=C/C(=O)OC` came in with an IC50 in the test with HeLa [1] greater than 20 µM.
Regarding `Clc1cccc(CNC2=Nc3ccccc3NC23CCNCC3)c1`, in the test on HeLa [2], the outcome was Active. Moreover, the Activity with HeLa [3] came to 5%.
`CCC[C@@H](O)CCCC[C@H]1CCC[C@H]2N[C@@H](C)[C@H](O)C[C@@H]12`: in the test on HeLa [1], the IC50 was greater than 20 µM.
Still for that read-out and setting: to `CCCCCCCC(=O)O[C@@H]1C[C@H]2[C@@H](CCCC[C@H](O)CCC)CCC[C@H]2N[C@H]1C` belongs 11.7 µM; to `CCCCC/C=C/C(=O)OC`, greater than 20 µM.

Source of the values: ChEMBL document CHEMBL5360653, “Marine Alkaloid Lepadins E and H Induce Ferroptosis for Cancer Chemotherapy” (J Med Chem, 2023).
